{"source": "patent US20200246364A1", "about": "“MEDICAL APPLICATION OF COMPOSITION OF FRUCTOSE-1,6-BISPHOSPHATE AND BLOOD CONCENTRATION STABILIZER THEREOF” (ZHEJIANG UNIVERSITY, priority 2017, published 2020)", "key": {"[1]": {"system": "glioma cells U87-MG", "assay": "Lactic acid released by glioma cells (glycolysis)", "type": "cell-based, human", "settings": "1.6 mM", "description": "(§1) Human glioma cell strains (U87-MG, KNS-89, SHG-44) were respectively incubated in culture media containing 0.8 mM of trisodium fructose-1,6-bisphosphate salt, and 1.6 mM of trisodium fructose-1,6-bisphosphate salt, and 1.6 mM of 2-deoxyglucose, and the contents of lactic acid as the final glycolytic product released by the cells in the culture media were measured after 12 h, 24 h, 36 h, and 48 h. […] Human glioma cell strain (U87-MG) was incubated in the culture medium containing 0.8 mM of trisodium fructose-1,6-bisphosphate salt for 1 h, 3 h, 6 h, 12 h, 24 h, 36 h, and 48 h, and level changes of key metabolic enzymes in the glycolytic pathway of cells were measured by Western Blot at the respective time points."}, "[2]": {"system": "glioma cells KNS-89", "assay": "Lactic acid released by glioma cells (glycolysis)", "type": "cell-based, human", "settings": "KNS-89, 1.6 mM", "description": "as §1"}, "[3]": {"system": "glioma cells SHG-44", "assay": "Lactic acid released by glioma cells (glycolysis)", "type": "cell-based, human", "settings": "SHG-44, 1.6 mM", "description": "as §1"}, "[4]": {"system": "fructose-1,6-bisphosphatase 1", "assay": "Kidney protein level of fructose-1,6-bisphosphatase 1 after 14 days treatment (Western Blot)", "type": "in vivo", "settings": "SD rats, 14 days i.g.; FBP 500 mg/kg, metformin 150 mg/kg, sitagliptin 20 mg/kg; vs control group", "experimental": "180-200 g SD rats were divided into 4 groups: a saline control group, a trisodium fructose-1,6-bisphosphate hydrate group (500 mg/kg, i.g), a metformin group (150 mg/kg, i.g) or a sitagliptin group (20 mg/kg, i.g), and a trisodium fructose-1,6-bisphosphate and metformin or sitagliptin combination group, 5 rats in each group. All groups were intragastrically treated, metformin or sitagliptin was administrated 0.5 h before fructose-1,6-bisphosphate, and this was repeated in 14 consecutive days. At 3 hours after the last intragastric treatment with fructose-1,6-bisphosphate, rat blood was collected to detect the blood concentration of FBP, kidney tissue was taken and the protein level of fructose-1,6-bisphosphatase 1 was measured by Western Blot."}, "[5]": {"system": "mouse liver cancer cells H22", "assay": "Tumor growth of mouse liver cancer H22 model", "type": "in vivo, ICR mice", "settings": "FBP 500 mg/kg, i.g., 7 days; for Tumor weight: three times per day; for inhibition of tumor growth (inhibition ratio): H22, metformin 150 mg/kg, sitagliptin 20 mg/kg", "experimental": "The treatment was performed three times per day, in which metformin or sitagliptin was administrated 0.5 h before trisodium fructose-1,6-bisphosphate. This is repeated for 7 days, and situations of the animals during the experiments were observed. The animals were sacrificed 24 hours after the last treatment, the tumor masses were taken out and weighed, and the average tumor weight in each group of animals was used as an efficacy index."}, "[6]": {"system": "SW620", "assay": "cells", "settings": "Homo sapiens, SW-620, 72 h, read-out: cell viability (Con = 100)", "description": "(§2) Human intestinal cancer cell strains SW620 and HCT-8, which had been incubated for 24 hours, were respectively incubated in a medium containing 0.8 mM of trisodium fructose-1,6-bisphosphate, a medium containing 0.2 mM of metformin/100 μM of sitagliptin, and a medium containing 0.8 mM of trisodium fructose-1,6-bisphosphate and 0.2 mM of metformin/100 μM of sitagliptin for 72 h. A control group (Con) was not treated with the agent. Cell viability was determined by Sulforhodamine B (SRB) staining analysis method."}, "[7]": {"system": "Bel-7402", "assay": "cells", "settings": "Homo sapiens, Bel-7402, 72 h", "description": "(§3) Human liver cancer cell strains Bel-7402 and huh-7, which had been incubated for 24 hours, were respectively incubated in a medium containing 1.6 mM or 0.8 mM of trisodium fructose-1,6-bisphosphate, a medium containing 0.2 mM of metformin or 25 μM of sitagliptin, and a medium containing 0.8 mM of trisodium fructose-1,6-bisphosphate and 0.2 mM of metformin/25 μM of sitagliptin for 72 h. A control group (Con) was not treated with the agent. Cell viability was determined by Sulforhodamine B (SRB) staining analysis method."}, "[8]": {"system": "HCT-8", "assay": "Cell viability, Sulforhodamine B (SRB) staining", "type": "cell-based, human", "settings": "HCT-8, 72 h, FBP 0.8 mM", "description": "as §2"}, "[9]": {"system": "Huh-7", "assay": "Cell viability, Sulforhodamine B (SRB) staining", "type": "cell-based, human", "settings": "Huh-7, 72 h, FBP 0.8 mM", "description": "as §3"}, "[10]": {"assay": "Weight gain and fat accumulation caused by high-fat diet", "type": "in vivo, ICR mice", "settings": "high-fat diet mice", "description": "40 ICR male mice (17-19 g/per mouse) were divided into 2 groups. […] The animals of the normal group (Naive) were still fed with the basic feed, and the model animals were equally divided into 4 groups and were further fed with the high-fat diet. In addition, according to the amount of water the mice had consumed, a certain dose of the agent was dissolved in drinking water. The animals in the model group (Model) were fed with the purified water, the animals in the fructose-1,6-bisphosphate group were fed with water containing 0.18% of 8-molecule hydrate of sodium fructose-1,6-bisphosphate (equivalent to FBP 300 mg/kg), the animals in the sitagliptin group were fed with water containing 0.012% of sitagliptin phosphate salt (equivalent to STG 20 mg/kg), and the animals in the combination group were fed with water containing FBP 500 mg/kg+STG 20 mg/kg. The treatment lasted continuously for 6 weeks, the body weight, food intake and water intake were measured per week, the body weight and body length (CM) were measured on the last day of the last week, and a Lee's INDEX (Lee's INDEX=body weight (g)^(1/3) * 1000/body length (cm)) was calculated to evaluate the state of animal obesity. Then, the animals were sacrificed by cervical vertebra dislocation and the mice were dissected, the epididymal fat pad was taken and weighed, and a fat coefficient was calculated to further investigate the degree of obesity of the mice."}, "[11]": {"system": "melanoma B16 cell", "assay": "Cell viability, Sulforhodamine B (SRB) staining", "settings": "Mus musculus, B16, 72 h, read-out: cell viability inhibited", "description": "Mouse melanoma B16 cells, which had been incubated for 24 hours, were incubated in a medium containing 0.8 mM of trisodium fructose-1,6-bisphosphate, a medium containing 20 μM of sitagliptin, and a medium containing 0.8 mM of trisodium fructose-1,6-bisphosphate and 20 μM of sitagliptin for 72 h. A control group (Con) was not treated with the agent. Cell viability was determined by Sulforhodamine B (SRB) staining analysis method."}}, "data": [{"molecule": "O=CC[C@@H](O)[C@H](O)[C@H](O)CO", "note": "[2-DG, 2-deoxy-D-glucose]", "values": [{"measurement": "Relative levels of lactic acid (compared with the control group)", "setting": "[1]; 12 h", "result": "0.48 ± 0.16"}, {"measurement": "Relative levels of lactic acid (compared with the control group)", "setting": "[1]; 24 h", "result": "0.31 ± 0.07"}, {"measurement": "Relative levels of lactic acid (compared with the control group)", "setting": "[1]; 36 h", "result": "0.65 ± 0.10"}, {"measurement": "Relative levels of lactic acid (compared with the control group)", "setting": "[2]; 12 h", "result": "0.31 ± 0.09"}, {"measurement": "Relative levels of lactic acid (compared with the control group)", "setting": "[2]; 24 h", "result": "0.27 ± 0.13"}, {"measurement": "Relative levels of lactic acid (compared with the control group)", "setting": "[2]; 36 h", "result": "0.31 ± 0.02"}, {"measurement": "Relative levels of lactic acid (compared with the control group)", "setting": "[3]; 12 h", "result": "0.76 ± 0.15"}, {"measurement": "Relative levels of lactic acid (compared with the control group)", "setting": "[3]; 24 h", "result": "0.62 ± 0.13"}, {"measurement": "Relative levels of lactic acid (compared with the control group)", "setting": "[3]; 36 h", "result": "0.57 ± 0.04"}]}, {"molecule": "CN(C)C(=N)N=C(N)N", "note": "[Met, metformin]", "values": [{"measurement": "protein level of fructose-1,6-bisphosphatase 1 in kidney tissue (Western Blot)", "setting": "[4]", "result": "not significantly changed"}, {"measurement": "Tumor weight", "setting": "[5]; H22, metformin experiment, Met 150 mg/kg, Con 1.66 ± 0.29", "result": "1.46 ± 0.23", "unit": "g"}, {"measurement": "inhibition of tumor growth (inhibition ratio)", "setting": "[5]", "result": "no significant difference"}, {"measurement": "viability at 200 µM", "setting": "[6]", "result": "95.9 ± 7.54", "unit": "%"}, {"measurement": "viability at 200 µM", "setting": "[7]; read-out: cell viability (Con = 100)", "result": "91.7 ± 1.62", "unit": "%"}, {"measurement": "cytotoxicity at 200 µM", "setting": "[7]; read-out: cell viability inhibited", "result": 5, "unit": "%"}]}, {"molecule": "N[C@@H](CC(=O)N1CCn2c(nnc2C(F)(F)F)C1)Cc1cc(F)c(F)cc1F", "note": "[STG, sitagliptin]", "values": [{"measurement": "protein level of fructose-1,6-bisphosphatase 1 in kidney tissue (Western Blot)", "setting": "[4]", "result": "not significantly changed"}, {"measurement": "cell viability inhibited", "setting": "[8]; sitagliptin 100 μM", "result": "did not affect"}, {"measurement": "viability at 100 µM", "setting": "[8]; Homo sapiens, STG 100 μM, read-out: cell viability (Con = 100)", "result": "95.4 ± 3.79", "unit": "%"}, {"measurement": "viability at 25 µM", "setting": "[9]; Homo sapiens, STG 25 μM, read-out: cell viability (Con = 100)", "result": "92.1 ± 1.35", "unit": "%"}, {"measurement": "cell viability inhibited", "setting": "[9]; sitagliptin 25 μM", "result": "no significant difference"}, {"measurement": "Tumor weight", "setting": "[5]; H22, sitagliptin experiment, STG 20 mg/kg, Con 1.48 ± 0.34", "result": "0.78 ± 0.31", "unit": "g"}, {"measurement": "inhibition of tumor growth (inhibition ratio)", "setting": "[5]", "result": 46.12, "unit": "%"}, {"measurement": "fat coefficient (epididymal fat pad)", "setting": "[10]; 6 weeks, model group 3.96±0.83%, normal group 1.58±0.68%", "result": "3.28±1.14", "unit": "%"}, {"measurement": "Lee's INDEX", "setting": "[10]; 6 weeks, model group 353.28±9.64, normal group 337.05±9.96", "result": "346.34±9.36"}, {"measurement": "body weight after 6 weeks", "setting": "[10]; agents in drinking water, FBP 300 mg/kg, STG 20 mg/kg, combination FBP 500 mg/kg+STG 20 mg/kg, model group 47.89±3.34", "result": "46.78 ± 6.1", "unit": "g"}, {"measurement": "cytotoxicity at 20 µM", "setting": "[11]", "result": 16, "unit": "%"}]}]}
